Data taken from US10670605B2, “Cysteine reactive probes and uses thereof” (The Scripps Research Institute, priority 2015, dated 2020).

Experiments:
Experiment in all cases: Competitive isoTOP-ABPP, cell lysates;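 on isoTOP-ABPP reactivity profile ratio, Q99873 C109: Heavy/light ratio DMSO over fragment-treated so higher means more cysteine engagement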
Format in all cases: binding
[1] = molecular target: T1, IDH2 C308 (P48735) (Homo sapiens, UniProt P48735)
T1 sequence (P48735 40-452): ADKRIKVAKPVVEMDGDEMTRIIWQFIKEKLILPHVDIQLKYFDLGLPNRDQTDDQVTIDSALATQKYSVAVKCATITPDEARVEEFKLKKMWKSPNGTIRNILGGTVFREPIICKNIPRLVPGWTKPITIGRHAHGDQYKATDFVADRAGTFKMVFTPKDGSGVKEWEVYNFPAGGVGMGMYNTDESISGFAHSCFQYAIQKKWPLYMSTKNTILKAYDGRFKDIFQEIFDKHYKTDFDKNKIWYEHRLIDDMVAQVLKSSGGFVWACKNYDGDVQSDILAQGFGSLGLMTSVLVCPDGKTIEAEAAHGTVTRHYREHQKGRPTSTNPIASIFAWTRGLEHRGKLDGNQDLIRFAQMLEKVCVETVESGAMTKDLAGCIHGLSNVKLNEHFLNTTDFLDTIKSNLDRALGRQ

[2] = molecular target: T2, IRF4 C194 (Q15306) (Homo sapiens, UniProt Q15306); conditions: for isoTOP-ABPP reactivity ratio, Q15306_C194 / isoTOP-ABPP reactivity profile ratio, Q15306_C194: 500 μm, in-vitro_ramos
T2 sequence (Q15306 1-451): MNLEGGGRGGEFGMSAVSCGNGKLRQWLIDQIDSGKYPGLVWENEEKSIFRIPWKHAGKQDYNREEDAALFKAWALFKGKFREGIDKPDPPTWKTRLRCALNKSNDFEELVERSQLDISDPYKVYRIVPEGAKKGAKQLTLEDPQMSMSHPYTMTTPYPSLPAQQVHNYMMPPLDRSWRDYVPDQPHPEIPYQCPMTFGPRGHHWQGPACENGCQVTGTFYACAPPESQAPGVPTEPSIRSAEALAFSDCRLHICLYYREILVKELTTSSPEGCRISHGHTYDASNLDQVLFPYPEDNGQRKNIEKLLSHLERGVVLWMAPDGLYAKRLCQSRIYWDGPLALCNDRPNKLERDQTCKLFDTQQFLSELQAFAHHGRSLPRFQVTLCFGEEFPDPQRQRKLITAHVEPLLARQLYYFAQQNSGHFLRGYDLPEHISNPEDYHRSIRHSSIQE

[3] = molecular target: T3, PDIA6 C55 (Q15084) (Homo sapiens, UniProt Q15084); conditions: for isoTOP-ABPP reactivity ratio, Q15084_C55 / isoTOP-ABPP reactivity profile ratio, Q15084_C55: 500 μm
T3 sequence (Q15084 20-440): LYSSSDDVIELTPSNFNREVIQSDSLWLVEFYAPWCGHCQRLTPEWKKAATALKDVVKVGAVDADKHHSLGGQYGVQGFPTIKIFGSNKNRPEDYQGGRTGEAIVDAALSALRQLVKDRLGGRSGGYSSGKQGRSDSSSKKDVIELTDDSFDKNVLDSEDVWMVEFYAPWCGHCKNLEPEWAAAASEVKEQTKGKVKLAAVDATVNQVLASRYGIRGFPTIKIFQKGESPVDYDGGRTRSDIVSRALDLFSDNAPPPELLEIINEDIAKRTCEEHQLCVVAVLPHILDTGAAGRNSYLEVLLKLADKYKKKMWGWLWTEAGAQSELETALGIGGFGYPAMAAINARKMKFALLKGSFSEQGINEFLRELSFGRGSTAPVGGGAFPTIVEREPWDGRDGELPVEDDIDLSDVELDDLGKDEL

[4] = molecular target: PRMT1 C109 (Q99873) (Homo sapiens, UniProt Q99873); conditions: for isoTOP-ABPP reactivity ratio, Q99873_C109 / isoTOP-ABPP reactivity profile ratio, Q99873_C109: 500 μm;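 on isoTOP-ABPP reactivity profile ratio, Q99873 C109: Heavy/light ratio DMSO over fragment-treated so higher means more cysteine engagement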
PRMT1 C109 (Q99873), sequence (Q99873 whole entry, the tested form may be a part): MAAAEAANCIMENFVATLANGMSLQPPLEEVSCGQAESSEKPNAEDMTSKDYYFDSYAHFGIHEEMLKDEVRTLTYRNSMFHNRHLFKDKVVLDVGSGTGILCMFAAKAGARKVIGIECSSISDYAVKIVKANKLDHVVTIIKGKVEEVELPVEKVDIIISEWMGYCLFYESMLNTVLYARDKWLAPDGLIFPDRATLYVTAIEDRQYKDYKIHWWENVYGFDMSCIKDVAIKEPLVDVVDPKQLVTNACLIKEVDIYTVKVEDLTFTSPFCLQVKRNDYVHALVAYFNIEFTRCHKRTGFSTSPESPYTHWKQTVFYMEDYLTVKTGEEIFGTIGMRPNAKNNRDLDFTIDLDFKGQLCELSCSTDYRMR

[5] = molecular target: T4, UCHL3 C95 (P15374) (Homo sapiens, UniProt P15374); conditions: for isoTOP-ABPP reactivity ratio, P15374_C95 / isoTOP-ABPP reactivity profile ratio, P15374_C95: 500 μm
T4 sequence (P15374 1-230): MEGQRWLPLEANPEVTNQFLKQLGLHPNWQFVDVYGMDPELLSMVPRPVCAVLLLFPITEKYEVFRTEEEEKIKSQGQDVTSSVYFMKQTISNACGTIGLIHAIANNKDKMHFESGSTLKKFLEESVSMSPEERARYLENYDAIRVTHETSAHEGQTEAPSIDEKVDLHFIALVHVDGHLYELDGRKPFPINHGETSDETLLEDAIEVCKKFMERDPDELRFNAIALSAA

[6] = molecular target: ZNF217 C286 (O75362) (Homo sapiens, UniProt O75362); conditions: for isoTOP-ABPP reactivity ratio, O75362_C286 / isoTOP-ABPP reactivity profile ratio, O75362_C286: 500 μm
ZNF217 C286 (O75362), sequence (O75362 whole entry): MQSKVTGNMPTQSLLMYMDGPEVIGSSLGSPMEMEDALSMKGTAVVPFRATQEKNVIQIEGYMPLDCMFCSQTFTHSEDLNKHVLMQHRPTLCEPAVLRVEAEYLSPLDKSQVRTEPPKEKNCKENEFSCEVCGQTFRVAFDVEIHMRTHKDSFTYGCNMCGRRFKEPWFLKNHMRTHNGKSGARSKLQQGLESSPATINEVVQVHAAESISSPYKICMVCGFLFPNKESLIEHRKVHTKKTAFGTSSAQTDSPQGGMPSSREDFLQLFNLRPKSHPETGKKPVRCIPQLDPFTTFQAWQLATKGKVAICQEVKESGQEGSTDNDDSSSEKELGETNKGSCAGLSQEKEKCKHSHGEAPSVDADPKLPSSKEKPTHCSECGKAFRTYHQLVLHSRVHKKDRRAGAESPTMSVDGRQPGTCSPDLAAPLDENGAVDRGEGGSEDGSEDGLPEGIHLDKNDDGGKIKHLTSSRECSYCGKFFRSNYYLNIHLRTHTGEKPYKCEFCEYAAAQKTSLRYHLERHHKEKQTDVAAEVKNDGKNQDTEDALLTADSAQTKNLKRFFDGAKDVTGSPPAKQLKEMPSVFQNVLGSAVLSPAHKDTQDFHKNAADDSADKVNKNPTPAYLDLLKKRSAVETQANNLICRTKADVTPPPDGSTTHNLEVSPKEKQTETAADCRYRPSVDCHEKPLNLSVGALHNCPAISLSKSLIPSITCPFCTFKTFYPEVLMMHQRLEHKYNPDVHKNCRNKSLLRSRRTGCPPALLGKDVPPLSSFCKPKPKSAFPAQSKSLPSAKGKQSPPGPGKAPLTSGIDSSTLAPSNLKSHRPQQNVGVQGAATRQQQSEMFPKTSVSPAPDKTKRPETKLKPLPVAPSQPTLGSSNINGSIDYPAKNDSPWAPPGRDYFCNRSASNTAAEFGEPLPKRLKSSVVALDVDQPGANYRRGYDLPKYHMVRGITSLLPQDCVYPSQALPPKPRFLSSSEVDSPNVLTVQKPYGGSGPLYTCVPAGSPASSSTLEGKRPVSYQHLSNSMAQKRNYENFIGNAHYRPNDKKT

Structure (SMILES) | isoTOP-ABPP ratio (reactivity profile), Q15084_C55 ([3]; 500 μm in-vitro ramos) | isoTOP-ABPP ratio (reactivity profile), Q99873_C109 ([4]; 500 μm in-vitro ramos) | isoTOP-ABPP ratio (reactivity profile), P15374_C95 ([5]; 500 μm in-vitro ramos) | isoTOP-ABPP reactivity ratio, Q15306_C194 [2] | isoTOP-ABPP reactivity ratio, Q99873_C109 ([4]; in-vitro_ramos) | isoTOP-ABPP reactivity ratio, P15374_C95 ([5]; in-vitro_ramos) | isoTOP-ABPP reactivity ratio, O75362_C286 ([6]; in-vitro_ramos) | isoTOP-ABPP reactivity profile ratio, P48735_C308 ([1]; 500 μm, in-vitro_ramos_231) | isoTOP-ABPP reactivity profile ratio, Q15306_C194 [2] | isoTOP-ABPP reactivity profile ratio, Q15084_C55 ([3]; in-vitro_ramos) | isoTOP-ABPP reactivity profile ratio, Q15084_C55 ([3]; in-vitro_ramos_231) | isoTOP-ABPP reactivity profile ratio, Q99873_C109 ([4]; in-vitro_ramos) | isoTOP-ABPP reactivity profile ratio, Q99873_C109 ([4]; in-vitro_ramos_231) | isoTOP-ABPP reactivity profile ratio, P15374_C95 ([5]; in-vitro_ramos) | isoTOP-ABPP reactivity profile ratio, O75362_C286 ([6]; in-vitro_ramos_231) | further results
O=C(CCl)N1CCN(CC(=O)N2CCOCC2)CC1 [compound 29] | 1.3 | 0.9 | 1.0 |  |  |  |  |  |  |  |  |  |  |  |  | isoTOP-ABPP ratio (reactivity profile), P48735_C308 ([1]; 500 μm in-vitro ramos_231): 1.0; isoTOP-ABPP ratio (reactivity profile), Q15306_C194 ([2]; 500 μm in-vitro ramos): 1.2; isoTOP-ABPP ratio (reactivity profile), Q15084_C55 ([3]; 500 μm in-vitro ramos_231): 1.0; isoTOP-ABPP ratio (reactivity profile), Q99873_C109 ([4]; 500 μm in-vitro ramos_231): 1.0; isoTOP-ABPP ratio (reactivity profile), P15374_C95 ([5]; 500 μm in-vitro ramos_231): 0.9; isoTOP-ABPP ratio (reactivity profile), O75362_C286 ([6]; 500 μm in-vitro ramos_231): 0.9
CCN(CC)c1ccc(S(N)(=O)=O)cc1NC(=O)CCl [compound 30] | 2.2 | 1.1 | 0.7 | 1.7 | 1.8 | 1.0 | 2.1 |  |  |  |  |  |  |  |  | isoTOP-ABPP ratio (reactivity profile), P48735_C308 ([1]; 500 μm in-vitro ramos): 0.7
C=CC(=O)Nc1cc(F)c(N2CCN(C(=O)OC(C)(C)C)CC2)c(F)c1 [compound 38] |  |  |  | 2.1 | 1.4 | 12.5 | 1.2 |  |  |  |  |  |  |  |  | isoTOP-ABPP reactivity ratio, P48735_C308 ([1]; 500 μm, in-vitro_ramos_231): 1.2; isoTOP-ABPP reactivity ratio, Q15084_C55 ([3]; in-vitro_ramos): 1.3; isoTOP-ABPP reactivity ratio, Q15084_C55 ([3]; in-vitro_ramos_231): 1.0; isoTOP-ABPP reactivity ratio, Q99873_C109 ([4]; in-vitro_ramos_231): 0.9; isoTOP-ABPP reactivity ratio, P15374_C95 ([5]; in-vitro_ramos_231): 2.7; isoTOP-ABPP reactivity ratio, O75362_C286 ([6]; in-vitro_ramos_231): 0.9
COc1cc(NC(=O)CCl)cc(OC)c1 [compound 43] |  |  |  |  |  |  |  | 0.8 | 3.0 | 20.0 | 20.0 | 1.2 | 1.4 | 20.0 | 1.9 | isoTOP-ABPP reactivity profile ratio, O75362_C286 ([6]; in-vitro_ramos): 1.2
O=C(CCl)Nc1ccc(-c2ccccc2)cc1 [compound 52] |  |  |  |  |  |  |  | 1.1 | 1.4 | 1.8 | 1.1 | 1.3 | 0.9 |  | 1.0 | isoTOP-ABPP reactivity profile ratio, P15374_C95 ([5]; in-vitro_ramos_231): 1.2
C=CC(=O)N1CCC(Cc2ccccc2)CC1 [compound 53] |  |  |  |  |  |  |  | 0.5 | 1.0 | 1.0 | 0.9 | 1.1 | 0.9 | 0.7 | 1.1 | 
